{"source": "ChEMBL document CHEMBL3875157", "about": "“Neurodegenerative diseases linked to misfolded proteins and their therapeutic approaches: A review” (Eur J Med Chem, 2016)", "molecular_target": "Acetylcholinesterase (Homo sapiens, UniProt P22303)", "sequence (P22303 whole entry)": "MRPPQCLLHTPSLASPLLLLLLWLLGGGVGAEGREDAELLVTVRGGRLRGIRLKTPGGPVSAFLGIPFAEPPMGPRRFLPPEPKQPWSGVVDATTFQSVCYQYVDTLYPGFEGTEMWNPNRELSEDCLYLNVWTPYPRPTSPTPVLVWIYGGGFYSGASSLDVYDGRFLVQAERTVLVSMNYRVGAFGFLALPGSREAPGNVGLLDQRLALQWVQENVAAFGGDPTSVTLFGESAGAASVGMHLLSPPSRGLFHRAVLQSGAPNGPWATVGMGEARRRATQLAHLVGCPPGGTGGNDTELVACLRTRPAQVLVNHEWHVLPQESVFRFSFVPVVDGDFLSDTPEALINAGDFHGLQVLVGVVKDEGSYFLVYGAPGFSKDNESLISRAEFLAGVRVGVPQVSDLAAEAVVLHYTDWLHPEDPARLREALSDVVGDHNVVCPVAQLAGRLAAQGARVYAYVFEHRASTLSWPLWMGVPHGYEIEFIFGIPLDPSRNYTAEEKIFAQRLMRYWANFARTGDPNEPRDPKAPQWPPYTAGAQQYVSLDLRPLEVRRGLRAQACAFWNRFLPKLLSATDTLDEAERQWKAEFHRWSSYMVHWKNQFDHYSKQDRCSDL", "assay": "Inhibition of acetylcholinesterase (unknown origin)"}
{"compound": "CCOC(=O)C1=C(C)Oc2nc3c(c(N)c2C1c1ccc(OC)cc1)CCCC3", "note": "(stereo unspecified)", "values": [{"measurement": "IC50", "result": "182 to 868", "unit": "nM"}]}
